Here are results for eight molecules from US20010029239A1, “New herbicidal compositions” (priority 1999, published 2001).

SMILES strings stand for the structures. Some results are limits rather than exact numbers.

The experiment can be described thus: Pre-emergence (experimental example 1) and post-emergence (experimental example 2) herbicidal tests, reported together. The conditions noted are these: 336 h; one or more weed species, in one or both of experimental examples 1 (pre-emergence, 250 g/ha) and 2 (post-emergence, 250 g/ha or less); two weeks after treatment, versus untreated control; read-out: reduction in the growth of one or more weed species. The class given is in vivo. The method, then: Seed of various broad-leaf and grass weed species were sown and herbicide, dissolved in a mixture of acetone and water, was applied at a rate of 250 g/ha to the soil surface. The said weeds are Amaranthus retroflexus, Abutilon theophrasti, Galium aparine, Ipomoea purpurea, Setaria viridis, Alopecurus myosuroides, Avena fatua and Echinochloa crus-calli. Two weeks after treatment the percentage reduction in plant growth was assessed in comparison with an untreated control. Seed of the various weed species, as listed in experimental example 1, were sown and grown up to a 1-3 leaves stage. A post-emergence application of herbicide, dissolved in a mixture of acetone and water, was applied at a rate of 250 g/ha or less. Two weeks after treatment the percentage reduction in plant growth was assessed, in comparison with an untreated control.
Take `COC=C(Oc1cccc(OC(=COC)C(=O)OC)c1C(=O)O)C(=O)OC` [Compound 1, 2,6-bis(2-methoxy-1-methoxycarbonyl-vinyloxy)benzoic acid]: the pest or weed control at up to 250 g/ha was at least 80%.
The result for `COC=C(Oc1cccc(COC(C)=O)c1C(=O)O)C(=O)OC` [Compound 2, methyl 2-(3-acetoxymethyl-2-carboxyphenoxy)-3-methoxypropenoate] reads at least 80%.
With `C#CCOC(=O)c1c(OC(=COC)C(=O)OC)cccc1OC(=COC)C(=O)OC` [Compound 13, propargyl 2,6-bis(2-methoxy-1-methoxycarbonyl-vinyloxy)benzoate] the figure was at least 80%.
Turning to `COC=C(Oc1cccc(COc2ccccc2)c1C(=O)O)C(=O)OC` [Compound 16, methyl 2-(2-carboxy-3-phenoxymethylphenoxy)-3-methoxypropenoate], the pest or weed control at up to 250 g/ha was at least 80%.
With `COC=C(Oc1cccc(COc2ccc(Cl)cc2)c1C(=O)O)C(=O)OC` [Compound 17, methyl 2-(2-carboxy-3-(4-chlorophenoxymethyl)phenoxy)-3-methoxypropenoate] the figure was at least 70%.
The result for `COC=C(Oc1cccc(COc2ccc(C#N)cc2)c1C(=O)O)C(=O)OC` [Compound 18, methyl 2-[2-carboxy-3-(4-cyanophenoxymethyl)phenoxy]-3-methoxypropenoate] reads at least 70%; that for `COC=C(Oc1cccc(COc2ccc(OC)cc2)c1C(=O)O)C(=O)OC` [Compound 19, methyl 2-[2-carboxy-3-(4-methoxyphenoxymethyl)phenoxy]-3-methoxypropenoate], at least 80%; that for `COC=C(Oc1cccc(COc2ccc(C)cc2)c1C(=O)O)C(=O)OC` [Compound 20, methyl 2-[2-carboxy-3-(4-methylphenoxymethyl)phenoxy]-3-methoxypropenoate], at least 70%.
